# Assay results: PubChem BioAssay (NCI)
#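 These data come from cells grown in 96-well plates and exposed to compound for 48 hours at five concentrations. TGI: concentration producing complete growth inhibition.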
# How the values were obtained:
# Test in all cases: NCI tumour cell line growth inhibition, 48 h
# [1] = test system: SK-MEL-28 melanoma
# [2] = test system: XF 498 CNS
# [3] = test system: MCF7 breast
# [4] = test system: SNB-19 CNS
# [5] = test system: UACC-62 melanoma
# [6] = test system: RXF 393 renal
# [7] = test system: SNB-75 CNS
# [8] = test system: SK-MEL-5 melanoma
# [9] = test system: KM12 colon
# [10] = test system: LOX IMVI melanoma
# [11] = test system: SN12K1 renal
# [12] = test system: P388/ADR leukemia
# [13] = test system: DLD-1 colon
# [14] = test system: OVCAR-3 ovarian
# [15] = test system: OVCAR-5 ovarian
# [16] = test system: U251 CNS
# [17] = test system: HCT-116 colon
# [18] = test system: IGROV1 ovarian
# [19] = test system: RPMI-8226 leukemia
# [20] = test system: HOP-18 NSCLC
# [21] = test system: MOLT-4 leukemia
# [22] = test system: HT29 colon
# [23] = test system: SF-295 CNS
# [24] = test system: HOP-62 NSCLC
# [25] = test system: KM20L2 colon
# [26] = test system: NCI-H522 lung
# [27] = test system: A498 renal
# [28] = test system: SF-268 CNS
# [29] = test system: DMS 114 small cell lung
# [30] = test system: SN12C renal
# [31] = test system: SNB-78 CNS
# [32] = test system: K-562 leukemia
# [33] = test system: NCI-H226 lung
# [34] = test system: DMS 273 small cell lung
# [35] = test system: HCC-2998 colon
# [36] = test system: CCRF-CEM leukemia
# [37] = test system: NCI/ADR-RES ovarian
# [38] = test system: OVCAR-4 ovarian
# [39] = test system: HCT-15 colon
# [40] = test system: UACC-257 melanoma
# [41] = test system: NCI-H23 lung
# [42] = test system: COLO 205 colon
# [43] = test system: NCI-H460 lung
# [44] = test system: P388 leukemia
# [45] = test system: UO-31 renal
# [46] = test system: A549 NSCLC
# [47] = test system: HL-60(TB) leukemia
# [48] = test system: SW-620 colon
# [49] = test system: OVCAR-8 ovarian
# [50] = test system: EKVX NSCLC
# [51] = test system: CAKI-1 renal
# [52] = test system: SF-539 CNS
# [53] = test system: SK-OV-3 ovarian
# [54] = test system: MALME-3M melanoma
# [55] = test system: M19-MEL melanoma
# [56] = test system: SK-MEL-2 melanoma
# [57] = test system: HOP-92 NSCLC
structure (smiles),measurement,setting,value
C=C1CC(OC)(C(OC)C(=O)N(C)[C@H]2OCO[C@H]3C2O[C@H](C[C@@H](COC)OC)C(C)(C)C3OC)O[C@H](C)[C@@H]1C (some centres undefined),TGI,[1],40.6 µM
same,TGI,[2],40.1 µM
same,TGI,[3],28.8 µM
same,TGI,[4],46.8 µM
same,TGI,[5],33.1 µM
same,TGI,[6],24.8 µM
same,TGI,[7],24.7 µM
same,TGI,[8],> 9.17 µM
same,TGI,[9],25.9 µM
same,TGI,[10],26.5 µM
same,TGI,[11],38.6 µM
same,TGI,[12],38.8 µM
same,TGI,[13],70.4 µM
same,TGI,[14],37.8 µM
same,TGI,[15],69.2 µM
same,TGI,[16],54.4 µM
same,TGI,[17],30.6 µM
same,TGI,[18],32.5 µM
same,TGI,[19],53.2 µM
same,TGI,[20],71.2 µM
same,TGI,[21],36 µM
same,TGI,[22],29 µM
same,TGI,[23],30 µM
same,TGI,[24],> 91.7 µM
same,TGI,[25],36.8 µM
same,TGI,[26],29.9 µM
same,TGI,[27],28.8 µM
same,TGI,[28],30.2 µM
same,TGI,[29],34.9 µM
same,TGI,[30],86.6 µM
same,TGI,[31],43.5 µM
same,TGI,[32],40.9 µM
same,TGI,[33],23.9 µM
same,TGI,[34],29 µM
same,TGI,[35],31.6 µM
same,TGI,[36],37.7 µM
same,TGI,[37],41.2 µM
same,TGI,[38],22.2 µM
same,TGI,[39],87.3 µM
same,TGI,[40],30.3 µM
same,TGI,[41],34.7 µM
same,TGI,[42],20.9 µM
same,TGI,[43],64.5 µM
same,TGI,[44],18.2 µM
same,TGI,[45],49.1 µM
same,TGI,[46],> 91.7 µM
same,TGI,[47],39.6 µM
same,TGI,[48],> 91.7 µM
same,TGI,[49],> 91.7 µM
same,TGI,[50],60.7 µM
same,TGI,[51],28.5 µM
same,TGI,[52],42.8 µM
O=C1NC(c2cccc3ccccc23)Nc2ccc(O)cc21 (centres undefined),TGI,[1],> 150 µM
same,TGI,[2],59.2 µM
same,TGI,[3],102 µM
same,TGI,[4],150 µM
same,TGI,[5],78.5 µM
same,TGI,[6],91.9 µM
same,TGI,[7],106 µM
same,TGI,[8],80.8 µM
same,TGI,[9],83.9 µM
same,TGI,[10],> 75.7 µM
same,TGI,[53],115 µM
same,TGI,[11],112 µM
same,TGI,[12],83.6 µM
same,TGI,[13],134 µM
same,TGI,[14],58.5 µM
same,TGI,[15],101 µM
same,TGI,[16],> 141 µM
same,TGI,[17],122 µM
same,TGI,[18],95.7 µM
same,TGI,[19],82.5 µM
same,TGI,[20],131 µM
same,TGI,[21],75.5 µM
same,TGI,[22],121 µM
same,TGI,[23],104 µM
same,TGI,[24],121 µM
same,TGI,[25],113 µM
same,TGI,[26],92.3 µM
same,TGI,[27],75.3 µM
same,TGI,[28],> 150 µM
same,TGI,[29],67.1 µM
same,TGI,[30],133 µM
same,TGI,[31],> 150 µM
same,TGI,[54],69.5 µM
same,TGI,[32],> 94.6 µM
same,TGI,[33],60 µM
same,TGI,[34],64.5 µM
same,TGI,[35],88.5 µM
same,TGI,[36],111 µM
same,TGI,[37],94.2 µM
same,TGI,[38],> 150 µM
same,TGI,[55],127 µM
same,TGI,[39],78.3 µM
same,TGI,[40],> 84.4 µM
same,TGI,[41],> 132 µM
same,TGI,[42],67.4 µM
same,TGI,[43],69.5 µM
same,TGI,[44],50.6 µM
same,TGI,[45],78.5 µM
same,TGI,[46],> 139 µM
same,TGI,[56],57.3 µM
same,TGI,[47],35 µM
same,TGI,[48],> 127 µM
same,TGI,[49],111 µM
same,TGI,[50],128 µM
same,TGI,[51],> 144 µM
same,TGI,[57],98.9 µM
same,TGI,[52],91.6 µM
